Reference: PubChem BioAssay (NCI)
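48-hour exposure; five concentrations; linearly interpolated endpoints. Here, GI50 denotes the concentration required for 50% inhibition of growth. Definition used: TGI = concentration required for complete inhibition of growth.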

Columns and labels:
Experiment in all cases: NCI-60 cell line screen, 48 h
RXF 393 renal = tested on: RXF 393 renal
NCI/ADR-RES ovarian = tested on: NCI/ADR-RES ovarian
HL-60(TB) leukemia = tested on: HL-60(TB) leukemia
SK-MEL-5 melanoma = tested on: SK-MEL-5 melanoma
LOX IMVI melanoma = tested on: LOX IMVI melanoma
MCF7 breast = tested on: MCF7 breast
A549 NSCLC = tested on: A549 NSCLC
COLO 205 colon = tested on: COLO 205 colon
ACHN renal = tested on: ACHN renal
DU-145 prostate = tested on: DU-145 prostate
UACC-62 melanoma = tested on: UACC-62 melanoma
IGROV1 ovarian = tested on: IGROV1 ovarian
CAKI-1 renal = tested on: CAKI-1 renal
M14 melanoma = tested on: M14 melanoma
NCI-H522 lung = tested on: NCI-H522 lung
786-0 renal = tested on: 786-0 renal
TK-10 renal = tested on: TK-10 renal
BT-549 breast = tested on: BT-549 breast
SF-295 CNS = tested on: SF-295 CNS
U251 CNS = tested on: U251 CNS
RPMI-8226 leukemia = tested on: RPMI-8226 leukemia
NCI-H460 lung = tested on: NCI-H460 lung
HOP-92 NSCLC = tested on: HOP-92 NSCLC
HCT-15 colon = tested on: HCT-15 colon
NCI-H23 lung = tested on: NCI-H23 lung
MALME-3M melanoma = tested on: MALME-3M melanoma
OVCAR-4 ovarian = tested on: OVCAR-4 ovarian
SK-OV-3 ovarian = tested on: SK-OV-3 ovarian
MDA-MB-435 = tested on: MDA-MB-435

Which results are given for `COc1cc(C2NC(=O)C(C#N)=C(Nc3cccc(C)c3)S2)ccc1O` (stereo not drawn)?
GI50 (RXF 393 renal): > 100 µM; TGI (RXF 393 renal): > 100 µM; GI50 (NCI/ADR-RES ovarian): > 100 µM; TGI (NCI/ADR-RES ovarian): > 100 µM; GI50 (HL-60(TB) leukemia): > 100 µM; TGI (HL-60(TB) leukemia): > 100 µM; GI50 (SK-MEL-5 melanoma): > 100 µM; TGI (SK-MEL-5 melanoma): > 100 µM; GI50 (LOX IMVI melanoma): > 100 µM; TGI (LOX IMVI melanoma): > 100 µM; GI50 (MCF7 breast): > 100 µM; TGI (MCF7 breast): > 100 µM; GI50 (A549 NSCLC): > 100 µM; TGI (A549 NSCLC): > 100 µM; GI50 (COLO 205 colon): > 100 µM; TGI (COLO 205 colon): > 100 µM; GI50 (ACHN renal): > 100 µM; TGI (ACHN renal): > 100 µM; GI50 (DU-145 prostate): > 100 µM; TGI (DU-145 prostate): > 100 µM; GI50 (UACC-62 melanoma): > 100 µM; TGI (UACC-62 melanoma): > 100 µM; GI50 (IGROV1 ovarian): > 100 µM; TGI (IGROV1 ovarian): > 100 µM; GI50 (CAKI-1 renal): > 100 µM; TGI (CAKI-1 renal): > 100 µM; GI50 (M14 melanoma): > 100 µM; TGI (M14 melanoma): > 100 µM; GI50 (NCI-H522 lung): > 100 µM; TGI (NCI-H522 lung): > 100 µM; GI50 (786-0 renal): > 100 µM; TGI (786-0 renal): > 100 µM; GI50 (TK-10 renal): > 100 µM; TGI (TK-10 renal): > 100 µM; GI50 (BT-549 breast): > 100 µM; TGI (BT-549 breast): > 100 µM; GI50 (SF-295 CNS): > 100 µM; TGI (SF-295 CNS): > 100 µM; GI50 (U251 CNS): > 100 µM; TGI (U251 CNS): > 100 µM; GI50 (RPMI-8226 leukemia): > 100 µM; TGI (RPMI-8226 leukemia): > 100 µM; GI50 (NCI-H460 lung): > 100 µM; TGI (NCI-H460 lung): > 100 µM; GI50 (HOP-92 NSCLC): > 100 µM; TGI (HOP-92 NSCLC): > 100 µM; GI50 (HCT-15 colon): > 100 µM; TGI (HCT-15 colon): > 100 µM; GI50 (NCI-H23 lung): > 100 µM; TGI (NCI-H23 lung): > 100 µM; GI50 (MALME-3M melanoma): > 100 µM; TGI (MALME-3M melanoma): > 100 µM; GI50 (OVCAR-4 ovarian): > 100 µM; TGI (OVCAR-4 ovarian): > 100 µM; GI50 (SK-OV-3 ovarian): > 100 µM; TGI (SK-OV-3 ovarian): > 100 µM; GI50 (MDA-MB-435): > 100 µM; TGI (MDA-MB-435): > 100 µM
